According to patent publication US7005432B2, “Substituted imidazol-pyridazine derivatives” (Hoffman-La Roche Inc., priority 2002, dated 2006):
Counter-ions that a name gives are not always drawn.

Biological target: T1, NMDA-receptor subtype 2B (Rattus norvegicus, UniProt P35439+Q00960)
T1 construct: Membranes were prepared by homogenization of the whole brain minus cerebellum and medulla oblongata; from tissue; host or cells: rat whole brain minus cerebellum and medulla oblongata (membranes)
Test: 3H-Ro 25-6981 binding (displacement) on rat brain membranes
Settings: displacement of 5 nM 3H-Ro 25-6981, rat whole brain (minus cerebellum and medulla oblongata) membranes, 2 hours at 4° C., Tris-HCl 50 mM pH 7.4
Procedure: ^3H-Ro 25-6981 binding (Ro 25-6981 is [R-(R*,S*)]-α-(4-hydroxy-phenyl)-β-methyl-4-(phenyl-methyl)-1-piperidine propanol)
Male Füllinsdorf albino rats weighing between 150-200 g were used. Membranes were prepared by homogenization of the whole brain minus cerebellum and medulla oblongata with a Polytron (10.000 rpm, 30 seconds), in 25 volumes of a cold Tris-HCl 50 mM, EDTA 10 mM, pH 7.1 buffer. The homogenate was centrifuged at 48,000 g for 10 minutes at 4° C. The pellet was resuspended using the Polytron in the same volume of buffer and the homogenate was incubated at 37° C. for 10 minutes. After centrifugation the pellet was homogenized in the same buffer and frozen at −80° C. for at least 16 hours but not more than 10 days. For the binding assay the homogenate was thawed at 37° C., centrifuged and the pellet was washed three times as above in a Tris-HCl 5 mM, pH 7.4 cold buffer. The final pellet was resuspended in the same buffer and used at a final concentration of […].
^3H-Ro 25-6981 binding experiments were performed using a Tris-HCl 50 mM, pH 7.4 buffer. For displacement experiments 5 nM of ^3H-Ro 25-6981 were used and non specific binding was measured using 10 mM of tetrahydroisoquinoline and usually it accounts for 10% of the total. The incubation time was 2 hours at 4° C. and the assay was stopped by filtration on Whatmann GF/B glass fiber filters (Unifilter-96, Packard, Zürich, Switzerland). The filters were washed 5 times with cold buffer. The radioactivity on the filter was counted on a Packard Top-coullt microplate scintillation counter after addition of […] of microscint 40 (Canberra Packard S.A., Zürich, Switzerland).
The effects of compounds were measured using a minimum of 8 concentrations and repeated at least once. The pooled normalized values were analyzed using a non-linear regression calculation program which provide IC50 with their relative upper and lower 95% confidence limits.

T1 sequence (Q00960 27-1482, other chains not shown): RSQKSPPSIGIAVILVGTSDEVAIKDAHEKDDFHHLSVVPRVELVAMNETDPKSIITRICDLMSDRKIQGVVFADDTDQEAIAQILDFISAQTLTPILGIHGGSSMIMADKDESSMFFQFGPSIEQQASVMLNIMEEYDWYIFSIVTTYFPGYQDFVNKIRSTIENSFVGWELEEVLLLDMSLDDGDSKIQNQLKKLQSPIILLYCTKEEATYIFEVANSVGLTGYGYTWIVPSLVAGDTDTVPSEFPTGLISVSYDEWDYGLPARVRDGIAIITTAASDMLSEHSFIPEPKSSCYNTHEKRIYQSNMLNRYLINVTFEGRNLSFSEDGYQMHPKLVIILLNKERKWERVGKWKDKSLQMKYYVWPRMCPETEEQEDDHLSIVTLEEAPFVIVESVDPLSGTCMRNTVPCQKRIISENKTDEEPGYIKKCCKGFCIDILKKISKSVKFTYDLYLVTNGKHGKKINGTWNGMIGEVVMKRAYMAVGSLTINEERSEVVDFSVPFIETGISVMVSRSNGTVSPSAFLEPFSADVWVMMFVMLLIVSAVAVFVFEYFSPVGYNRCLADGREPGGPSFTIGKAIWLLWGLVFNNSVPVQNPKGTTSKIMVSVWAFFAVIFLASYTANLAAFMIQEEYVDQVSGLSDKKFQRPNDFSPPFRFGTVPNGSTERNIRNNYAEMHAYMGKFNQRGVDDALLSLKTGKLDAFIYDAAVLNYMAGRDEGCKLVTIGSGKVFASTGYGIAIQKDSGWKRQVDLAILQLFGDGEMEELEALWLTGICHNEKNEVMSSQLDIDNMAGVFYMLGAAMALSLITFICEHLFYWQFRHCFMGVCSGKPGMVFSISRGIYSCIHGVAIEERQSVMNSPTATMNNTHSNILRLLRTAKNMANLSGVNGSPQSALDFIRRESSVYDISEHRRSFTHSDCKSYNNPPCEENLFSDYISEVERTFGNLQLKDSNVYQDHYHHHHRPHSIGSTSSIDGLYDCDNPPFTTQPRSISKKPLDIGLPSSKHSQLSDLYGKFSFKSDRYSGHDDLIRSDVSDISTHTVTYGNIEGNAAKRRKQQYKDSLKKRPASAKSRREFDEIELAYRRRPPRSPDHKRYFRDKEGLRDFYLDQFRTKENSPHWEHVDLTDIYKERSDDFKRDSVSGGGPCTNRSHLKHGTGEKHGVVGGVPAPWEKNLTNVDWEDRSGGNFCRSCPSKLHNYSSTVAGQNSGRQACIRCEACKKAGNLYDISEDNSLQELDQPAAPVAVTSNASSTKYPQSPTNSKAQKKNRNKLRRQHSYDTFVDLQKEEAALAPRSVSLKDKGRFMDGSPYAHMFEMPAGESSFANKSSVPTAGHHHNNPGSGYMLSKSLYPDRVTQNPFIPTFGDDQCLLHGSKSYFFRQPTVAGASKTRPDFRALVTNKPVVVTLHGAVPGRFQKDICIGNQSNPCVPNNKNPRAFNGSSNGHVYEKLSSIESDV

Row | IC50 [nM] | Compound
1 | 34 | COc1cc(-c2cnnc(Cn3ccnc3C)c2)c2ccccc2c1 [Example 49, 5-(3-Methoxy-naphthalen-1-yl)-3-(2-methyl-imidazol-1-yl-methyl)-pyridazine hydrochloride]
2 | 31 | Cc1nccn1Cc1cc(-c2cc(F)cc(C(C)(F)F)c2)cnn1 [Example 31, 5-[3-(1,1-Difluoro-ethyl)-5-fluoro-phenyl]-3-(2-methyl-imidazol-1-yl-methyl)-pyridazine hydrochloride]
3 | 68 | Cc1nccn1Cc1cc(-c2cccc(C(C)(C)C)c2)cnn1 [Example 34, 5-(3-tert-Butyl-phenyl)-3-(2-methyl-imidazol-1-yl-methyl)-pyridazine hydrochloride]
4 | 48 | Cc1nccn1Cc1cc(-c2cccc(C(C)C)c2)cnn1 [Example 42, 5-(3-Isopropyl-phenyl)-3-(2-methyl-imidazol-1-yl-methyl)-pyridazine hydrochloride]
5 | 41 | COc1cc(-c2cnnc(Cn3ccnc3C)c2)ccc1Cl [Example 41, 5-(4-Chloro-3-methoxy-phenyl)-3-(2-methyl-imidazol-1-yl-methyl)-pyridazine hydrochloride]
6 | 57 | Cc1nccn1Cc1cc(-c2ccc3c4c(cccc24)CC3)cnn1 [Example 45, 5-Acenaphthen-5-yl-3-(2-methyl-imidazol-1-yl-methyl)-pyridazine hydrochloride]
7 | 77 | COc1cccc2c(-c3cnnc(Cn4ccnc4C)c3)cccc12 [Example 36, 5-(5-Methoxy-naphthalen-1-yl)-3-(2-methyl-imidazol-1-yl-methyl)-pyridazine hydrochloride]
8 | 54 | COc1cc(-c2cnnc(Cn3ccnc3C)c2)cc(C(F)(F)F)c1 [Example 38, 5-(3-Methoxy-5-trifluoromethyl-phenyl)-3-(2-methyl-imidazol-1-yl-methyl)-pyridazine hydrochloride]
9 | 24 | Cc1nccn1Cc1cc(-c2ccc(Cl)c(C(C)(F)F)c2)cnn1 [Example 39, 5-[4-Chloro-3-(1,1-difluoro-ethyl)-phenyl]-3-(2-methyl-imidazol-1-yl-methyl)-pyridazine hydrochloride]
10 | 35 | COc1ccc2ccc(-c3cnnc(Cn4ccnc4C)c3)cc2c1 [Example 48, 5-(7-Methoxy-naphthalen-2-yl)-3-(2-methyl-imidazol-1-yl-methyl)-pyridazine hydrochloride]
11 | 25 | Cc1nccn1Cc1cc(-c2cccc3ccccc23)cnn1 [Example 35, 3-(2-Methyl-imidazol-1-yl-methyl)-5-naphthalen-1-yl-pyridazine hydrochloride]
12 | 37 | Cc1nccn1Cc1cc(-c2cccc(C(F)(F)F)c2F)cnn1 [Example 58, 5-(2-Fluoro-3-trifluoromethyl-phenyl)-3-(2-methyl-imidazol-1-yl-methyl)-pyridazine hydrochloride]
13 | 27 | Cc1nccn1Cc1cc(C2=Cc3ccccc3CC2)cnn1 [Example 68, 5-(3,4-Dihydro-naphthalen-2-yl)-3-(2-methyl-imidazol-1-yl-methyl)-pyridazine hydrochloride]
14 | 29 | Cc1nccn1Cc1cc(-c2ccc(F)c3ccccc23)cnn1 [Example 50, 5-(4-Fluoro-naphthalen-1-yl)-3-(2-methyl-imidazol-1-yl-methyl)-pyridazine hydrochloride]

The remaining lines, values behind:

Row | Compound | IC50 [nM]
15 | Cc1nccn1Cc1cc(-c2cccc(C3CC3)c2)cnn1 [Example 14, 5-(3-Cyclopropyl-phenyl)-3-(2-methyl-imidazol-1-yl-methyl)-pyridazine hydrochloride] | 20
16 | Cc1nccn1Cc1cc(-c2ccc(Cl)c(C(F)F)c2)cnn1 [Example 26, 5-(4-Chloro-3-difluoromethyl-phenyl)-3-(2-methyl-imidazol-1-yl-methyl)-pyridazine hydrochloride] | 12
17 | Cc1nccn1Cc1cc(-c2ccc3ccccc3c2)cnn1 [Example 12, 3-(2-Methyl-imidazol-1-ylmethyl)-5-naphthalen-2-yl-pyridazine-hydrochloride] | 22
18 | Cc1nccn1Cc1cc(-c2ccc(F)c(C(F)(F)F)c2)cnn1 [Example 3, 5-(4-Fluoro-3-trifluoromethyl-phenyl)-3-(2-methyl-imidazol-1-yl-methyl)-pyridazine hydrochloride] | 38
19 | Cc1nccn1Cc1cc(-c2cccc(C(F)F)c2)cnn1 [Example 25, 5-(3-Difluoromethyl-phenyl)-3-(2-methyl-imidazol-1-yl-methyl)-pyridazine hydrochloride] | 58
20 | Cc1nccn1Cc1cc(-c2ccc(Cl)c(C(F)(F)F)c2)cnn1 [Example 4, 5-(4-Chloro-3-trifluoromethyl-phenyl)-3-(2-methyl-imidazol-1-yl-methyl)-pyridazine hydrochloride] | 27
21 | Cc1nccn1Cc1cc(-c2ccc(Cl)c(Cl)c2)cnn1 [Example 13, 5-(3,4-Dichloro-phenyl)-3-(2-methyl-imidazol-1-yl-methyl)-pyridazine hydrochloride] | 11
22 | Cc1nccn1Cc1cc(-c2cc(F)cc(C(F)F)c2)cnn1 [Example 24, 5-(3-Difluoromethyl-5-fluoro-phenyl)-3-(2-methyl-imidazol-1-yl-methyl)-pyridazine hydrochloride] | 47
23 | COc1ccc2cc(-c3cnnc(Cn4ccnc4C)c3)ccc2c1 [Example 27, 5-(6-Methoxy-naphthalen-2-yl)-3-(2-methyl-imidazol-1-yl-methyl)-pyridazine hydrochloride] | 44
24 | Cc1nccn1Cc1cc(-c2ccc(F)c(Cl)c2)cnn1 [Example 1, 5-(3-Chloro-4-fluoro-phenyl)-3-(2-methyl-imidazol-1-yl-methyl)-pyridazine Hydrochloride] | 21
25 | Cc1cc(-c2cnnc(Cn3ccnc3C)c2)ccc1Cl [Example 30, 5-(4-Chloro-3-methyl-phenyl)-3-(2-methyl-imidazol-1-yl-methyl)-pyridazine hydrochloride] | 7
26 | Cc1nccn1Cc1cc(-c2cccc(C(C)(F)F)c2)cnn1 [Example 9, 5-[3-(1,1-Difluoro-ethyl)-phenyl]-3-(2-methyl-imidazol-1-yl-methyl)-pyridazine hydrochloride] | 34
27 | Cc1nccn1Cc1cc(-c2ccc(F)c(C(F)F)c2)cnn1 [Example 6, 5-(3-Difluoromethyl-4-fluoro-phenyl)-3-(2-methyl-imidazol-1-yl-methyl)-pyridazine hydrochloride] | 17
28 | Cc1nccn1Cc1cc(-c2ccc(F)c(C(C)(F)F)c2)cnn1 [Example 11, 5-[3-(1,1-Difluoro-ethyl)-4-fluoro-phenyl]-3-(2-methyl-imidazol-1-yl-methyl)-pyridazine hydrochloride] | 29
29 | Cc1nccn1Cc1cc(-c2ccc3sccc3c2)cnn1 [Example 15, 5-Benzo[b]thiophen-5-yl-3-(2-methyl-imidazol-1-yl-methyl)-pyridazine hydrochloride] | 16
30 | 5-(3-Difluoromethyl-4-fluoro-phenyl)-3-(2-ethyl-imidazol-1-ylethyl)-pyridazine hydrochloride [Example 52] | 26
31 | Cc1cc(-c2cnnc(Cn3ccnc3C)c2)ccc1F [Example 16, 5-(4-Fluoro-3-methyl-phenyl)-3-(2-methyl-imidazol-1-yl-methyl)-pyridazine hydrochloride] | 10
